Data published in patent US20260256792A1, “TREATMENT OF CHRONIC SPONTANEOUS URTICARIA BY ADMINISTERING (R)-2-[3-[4-AMINO-3-(2-FLUORO-4-PHENOXY-PHENYL)PYRAZOLO[3,4-D]PYRIMIDIN-1-YL]PIPERIDINE-1-CARBONYL]-4-METHYL-4-[4-(OXETAN-3-YL)PIPERAZIN-1-YL]PENT-2-ENENITRILE” (priority 2023, published 2026).

Tested on: moderate-to-severe chronic spontaneous urticaria (CSU)
Assay: Phase 2 CSU study: itch severity score over 7 days (ISS7)
Assay type: in vivo, human
Description: The study comprises a 12 week, randomized, double-blind, placebo-controlled, multi-center, dose-ranging efficacy and safety phase, followed by a 40 week open label extension (OLE) phase (see FIG. 1). The study consists of three phases and an optional OLE phase. […] Clinically, CSU is characterized by the spontaneous and recurrent appearance of pruritic hives. The proposed primary endpoints were the UAS7 at Week 12 in EU and EU reference countries and the ISS7 in the US. Regardless of where a participant was from, all assessments were the same. The UAS7 score is a composite score containing both the HSS7 and the ISS7. This allowed a global assessment of the two key components of urticaria: hives and itch. […] The UAS is a validated PRO measure. […] The daily UAS scores range from 0 to 6 point/day. […] Patients were to complete the UAS using the e-diary. […] The following secondary endpoints were to be analyzed using the same approach as for the primary endpoint: • Change from baseline in UAS7 at Week 4 • Change from baseline in UAS7 at Week 12 (for US and US reference countries) • Change from baseline in ISS7 at Week 12 (except US and US reference countries) • Change from baseline in HSS7 at Week 12

[1] = Omalizumab-naïve population, 400 mg BID (N = 35), double-blind period, last week block of Table 28 (week head not shown), WOCF imputation
[2] = Omalizumab-naïve population, 400 mg QPM (N = 37), double-blind period, last week block of Table 28 (week head not shown), WOCF imputation
[3] = Omalizumab-naïve population, 400 mg TID (N = 35), double-blind period, last week block of Table 28 (week head not shown), WOCF imputation
[4] = Patients with prior omalizumab use incl. incomplete responders, 400 mg TID (N = 6), double-blind period, last week block of Table 28 (week head not shown), WOCF imputation
[5] = Week 1, 400 mg BID, Omalizumab-Naïve
[6] = Week 1, 400 mg BID, Prior Omalizumab Use
[7] = Week 1, 400 mg QPM, Omalizumab-Naïve
[8] = Week 1, 400 mg QPM, Prior Omalizumab Use
[9] = Week 1, 400 mg TID, Omalizumab-Naïve
[10] = Week 1, 400 mg TID, Prior Omalizumab Use
[11] = Week 2, 400 mg BID, Omalizumab-Naïve

CC(C)(C=C(C#N)C(=O)N1CCC[C@@H](n2nc(-c3ccc(Oc4ccccc4)cc3F)c3c(N)ncnc32)C1)N1CCN(C2COC2)CC1 [rilzabrutinib, (R)-2-[3-[4-amino-3-(2-fluoro-4-phenoxy-phenyl)pyrazolo[3,4-d]pyrimidin-1-yl]piperidine-1-carbonyl]-4-methyl-4-[4-(oxetan-3-yl)piperazin-1-yl]pent-2-enenitrile]
ISS7 Post-baseline Mean (SD) (Omalizumab-Naïve, 400 mg TID, Week 5): 6.92 (5.87)
ISS7 Post-baseline Mean (SD) (Omalizumab-Naïve, 400 mg TID, Week 7): 7.14 (5.35)
ISS7 Post-baseline Mean (SD) (Omalizumab-Naïve, 400 mg TID, Week 8): 7.24 (5.51)
ISS7 Post-baseline Mean (SD) (Omalizumab-Naïve, 400 mg TID, Week 9): 6.68 (5.31)
ISS7 Post-baseline Mean (SD) (Omalizumab-Naïve, 400 mg TID, Week 10): 6.75 (5.25)
ISS7 Post-baseline Mean (SD) (Omalizumab-Naïve, 400 mg TID, Week 11): 6.99 (5.53)
ISS7 Post-baseline Mean (SD) (Omalizumab-Naïve, 400 mg TID, Week 12): 5.77 (5.26)
ISS7 Change from baseline Mean (SD) [1]: −6.60 (7.33)
ISS7 Change from baseline Median [1]: −8.00
ISS7 Percent change from baseline Mean (SD) [1]: −46.22 (56.25) %
ISS7 Percent change from baseline Median [1]: −53.33%
ISS7 change from baseline, Max [1]: 2.0
ISS7 change from baseline, Min [1]: −14.0
ISS7 change from baseline, Q1 [1]: −13.00
ISS7 change from baseline, Q3 [1]: 0.00
ISS7 percent change from baseline, Max [1]: 22.2%
ISS7 percent change from baseline, Min [1]: −100.0%
ISS7 percent change from baseline, Q1 [1]: −100.00%
ISS7 percent change from baseline, Q3 [1]: 0.00%
ISS7 Change from baseline Mean (SD) [2]: −11.40 (8.46)
ISS7 Change from baseline Median [2]: −14.00
ISS7 Percent change from baseline Mean (SD) [2]: −66.19 (45.96) %
ISS7 Percent change from baseline Median [2]: −83.33%
ISS7 change from baseline, Max [2]: 0.0
ISS7 change from baseline, Min [2]: −20.0
ISS7 change from baseline, Q1 [2]: −19.00
ISS7 change from baseline, Q3 [2]: 0.00
ISS7 percent change from baseline, Max [2]: 0.0%
ISS7 percent change from baseline, Min [2]: −100.0%
ISS7 percent change from baseline, Q1 [2]: −100.00%
ISS7 percent change from baseline, Q3 [2]: 0.00%
ISS7 Change from baseline Mean (SD) [3]: −6.20 (3.70)
ISS7 Change from baseline Median [3]: −7.00
ISS7 Percent change from baseline Mean (SD) [3]: −38.05 (24.78) %
ISS7 Percent change from baseline Median [3]: −47.37%
ISS7 change from baseline, Max [3]: 0.0
ISS7 change from baseline, Q1 [3]: −9.00
ISS7 change from baseline, Q3 [3]: −6.00
ISS7 percent change from baseline, Max [3]: 0.0%
ISS7 percent change from baseline, Min [3]: −64.3%
ISS7 percent change from baseline, Q1 [3]: −50.00%
ISS7 percent change from baseline, Q3 [3]: −28.57%
ISS7 Change from baseline Mean (SD) [4]: −1.50 (2.12)
ISS7 Change from baseline Median [4]: −1.50
ISS7 Percent change from baseline Mean (SD) [4]: −18.75 (26.52) %
ISS7 Percent change from baseline Median [4]: −18.75%
ISS7 change from baseline, Max [4]: 0.0
ISS7 change from baseline, Min [4]: −3.0
ISS7 change from baseline, Q1 [4]: −3.00
ISS7 change from baseline, Q3 [4]: 0.00
ISS7 percent change from baseline, Max [4]: 0.0%
ISS7 percent change from baseline, Min [4]: −37.5%
ISS7 percent change from baseline, Q1 [4]: −37.50%
ISS7 percent change from baseline, Q3 [4]: 0.00%
ISS7 Change from baseline Mean (SD) [5]: −4.94 (4.65)
ISS7 Change from baseline Median [5]: −4.00
ISS7 Median [5]: 12.00
ISS7 Percent change from baseline Mean (SD) [5]: −33.91 (34.62) %
ISS7 Percent change from baseline Median [5]: −25.00%
ISS7 Change from baseline Mean (SD) [6]: −6.33 (5.82)
ISS7 Change from baseline Median [6]: −4.50
ISS7 Median [6]: 13.00
ISS7 Percent change from baseline Mean (SD) [6]: −35.93 (34.83) %
ISS7 Percent change from baseline Median [6]: −23.02%
ISS7 Change from baseline Mean (SD) [7]: −3.30 (4.93)
ISS7 Change from baseline Median [7]: −3.00
ISS7 Mean (SD) [7]: 13.08 (4.52)
ISS7 Median [7]: 14.00
ISS7 Percent change from baseline Mean (SD) [7]: −17.96 (28.66) %
ISS7 Percent change from baseline Median [7]: −19.05%
ISS7 Change from baseline Mean (SD) [8]: −8.00 (NC)
ISS7 Change from baseline Median [8]: −8.00
ISS7 Mean (SD) [8]: 13.00 (NC)
ISS7 Median [8]: 13.00
ISS7 Percent change from baseline Mean (SD) [8]: −38.10 (NC) %
ISS7 Percent change from baseline Median [8]: −38.10%
ISS7 Change from baseline Mean (SD) [9]: −6.17 (5.49)
ISS7 Change from baseline Median [9]: −5.00
ISS7 Mean (SD) [9]: 9.51 (5.64)
ISS7 Median [9]: 9.00
ISS7 Percent change from baseline Mean (SD) [9]: −38.58 (33.51) %
ISS7 Percent change from baseline Median [9]: −31.37%
ISS7 Change from baseline Mean (SD) [10]: −9.67 (5.32)
ISS7 Change from baseline Median [10]: −9.00
ISS7 Mean (SD) [10]: 7.33 (5.43)
ISS7 Median [10]: 7.00
ISS7 Percent change from baseline Mean (SD) [10]: −58.16 (26.72) %
ISS7 Percent change from baseline Median [10]: −66.07%
ISS7 Change from baseline Mean (SD) [11]: −5.00 (4.40)
ISS7 Change from baseline Median [11]: −5.00
ISS7 Mean (SD) [11]: 10.32 (5.64)
